The nature of data set [1]: Volume of distribution at steady state in Wistar Hannover rat at 3 mg/kg, iv by LC-MS/MS analysis. It is filed as ADME, organism-based. The following applies: in vivo, read-out: Vdss.
Data set [2] deals with Plasmodium vivax. Description: Antimalarial activity against Plasmodium vivax infected in human assessed as median parasite clearance time at 400 […], po administered for 3 consecutive day and measured on day 5. It counts as functional.
A short description of data set [3]: Cmax in Wistar Hannover rat at 10 mg/kg, po by LC-MS/MS analysis. On the set-up: dose 10 mg/kg, route oral. The settings on record: in vivo. It is filed as ADME, organism-based.
Data set [4] is described as follows: Cardiotoxicity in human assessed as effect on QT parameters at 800 mg in presence of PPQ. The settings on record: in vivo. It counts as toxicity.
The nature of data set [5]: Volume of distribution in human at 10 to 1200 mg and measured up to 360 hrs by LC-MS/MS method. The settings on record: in vivo. It is filed as ADME.
Data set [6] can be described thus: Cmax in human at 10 to 1200 mg and measured up to 360 hrs by LC-MS/MS method. It counts as ADME. The settings on record: in vivo.
Data set [7] is described as follows: Half life in Wistar Hannover rat at 3 mg/kg, iv by LC-MS/MS analysis. It is filed as ADME, organism-based. The settings on record: in vivo.
The test system of data set [8] is Plasmodium falciparum. In words: Antimalarial activity against Plasmodium falciparum infected in human assessed as median parasite clearance time at 400 […], po administered for 3 consecutive day and measured on day 5. It is filed as functional.
Data set [9] can be described thus: Half life in Wistar Hannover rat at 10 mg/kg, po by LC-MS/MS analysis. The settings on record: in vivo. It counts as ADME, organism-based.
For data set [10], the system named is Plasmodium vivax. In words: Antimalarial activity against Plasmodium vivax infected in human assessed as median parasite clearance time at 800 […], po and measured on day 5. It counts as functional.
Data set [11] concerns Plasmodium falciparum. In words: Antimalarial activity against Plasmodium falciparum infected in human assessed as median parasite clearance time at 800 […], po and measured on day 5. It is filed as functional.
A short description of data set [12]: Tmax in Wistar Hannover rat at 10 mg/kg, po by LC-MS/MS analysis. The settings on record: in vivo. It counts as ADME, organism-based.
Data set [13] has as its system Plasmodium vivax. Description: Antimalarial activity against Plasmodium vivax assessed as reduction in parasite growth after 72 hrs by SYBR-green based fluorescence assay. It counts as functional, organism-based.
The nature of data set [14]: Cardiotoxicity in human assessed as effect on QT parameters at 800 mg. It is filed as toxicity.
Data set [15] can be described thus: Half life in human at 10 to 1200 mg and measured up to 360 hrs by LC-MS/MS method. It counts as ADME. The settings on record: in vivo.
Data set [16] can be described thus: Apparent clearance in human at 10 to 1200 mg and measured up to 360 hrs by LC-MS/MS method. It counts as ADME. The following applies: in vivo, read-out: CL(app).
Data set [17] in a line: Tmax in human at 10 to 1200 mg and measured up to 360 hrs by LC-MS/MS method. It counts as ADME. The following applies: in vivo.
Data set [18] can be described thus: Half life in human infected with Plasmodium vivax at 400 mg administered for 3 consecutive days and measured up to 192 hrs. It counts as ADME. The following applies: in vivo.
The nature of data set [19]: Half life in human infected with Plasmodium falciparum at 400 mg administered for 3 consecutive days and measured up to 192 hrs. It counts as ADME. The following applies: in vivo.
In data set [20] the test system is Plasmodium falciparum. In words: Antimalarial activity against Plasmodium falciparum assessed as reduction in parasite growth after 72 hrs by SYBR-green based fluorescence assay. It is filed as functional, organism-based.
Data set [21] is described as follows: Plasma clearance in Wistar Hannover rat at 3 mg/kg, iv by LC-MS/MS analysis. It is filed as ADME, organism-based.
Data set [22] in a line: Oral bioavailability in Wistar Hannover rat at 10 mg/kg by LC-MS/MS analysis. It is filed as ADME, organism-based. The settings on record: in vivo.
Data set [23] relates to Plasmodium falciparum. Description: Antimalarial activity against Plasmodium falciparum 3D7. It counts as functional, organism-based.
Data set [24] in a line: Tmax in human at 25 to 1200 mg, po measured up to 480 hrs by HPLC-MS/MS analysis. It is filed as ADME, organism-based. The following applies: in vivo.
A short description of data set [25]: Half life in human at 25 to 1200 mg, po measured up to 480 hrs by HPLC-MS/MS analysis. It counts as ADME, organism-based. The settings on record: in vivo.
A short description of data set [26]: AUC (0 to infinity) in human at 25 to 1200 mg, po measured up to 480 hrs by HPLC-MS/MS analysis. It is filed as ADME, organism-based. The following applies: in vivo.
Data set [27] can be described thus: Cardiotoxicity in human assessed as effect on QT parameters at 1280 mg. It is filed as toxicity.
Data set [28] deals with Cytochrome P450 3A4 (Homo sapiens, UniProt P08684). Description: Inhibition of CYP3A4 (unknown origin). It counts as ADME.
Sequence of Cytochrome P450 3A4 (P08684 whole entry): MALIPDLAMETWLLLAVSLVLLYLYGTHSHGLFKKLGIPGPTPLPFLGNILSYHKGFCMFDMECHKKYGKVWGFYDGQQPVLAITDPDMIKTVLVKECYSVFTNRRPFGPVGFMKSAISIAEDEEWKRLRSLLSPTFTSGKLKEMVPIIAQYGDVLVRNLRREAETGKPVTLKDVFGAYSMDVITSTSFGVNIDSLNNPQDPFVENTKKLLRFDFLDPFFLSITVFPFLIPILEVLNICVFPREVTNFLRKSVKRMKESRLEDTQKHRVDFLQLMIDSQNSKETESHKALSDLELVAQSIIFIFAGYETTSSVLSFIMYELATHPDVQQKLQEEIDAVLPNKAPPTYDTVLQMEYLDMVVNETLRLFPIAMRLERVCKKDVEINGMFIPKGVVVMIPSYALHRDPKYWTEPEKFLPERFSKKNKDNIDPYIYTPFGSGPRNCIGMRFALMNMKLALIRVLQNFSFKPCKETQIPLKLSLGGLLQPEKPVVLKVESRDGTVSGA
Data set [29] in a line: Drug recovery in feces of po dosed human by LC-MS/MS analysis. It is filed as ADME, organism-based. The following applies: faeces, read-out: Drug recovery.
Data set [30] is described as follows: Drug level in human Plasma treated with [14C]-KAE609 assessed metabolite formation. It counts as ADME, cell-free.
Data set [31] can be described thus: Half life in human. It is filed as ADME.
The target of data set [32] is Dihydroorotate dehydrogenase (quinone), mitochondrial (Homo sapiens, UniProt Q02127). In words: Inhibition of human DHODH expressed in Escherichia coli using L-dihydroorotate as substrate.
Sequence of Dihydroorotate dehydrogenase (quinone), mitochondrial (Q02127 whole entry): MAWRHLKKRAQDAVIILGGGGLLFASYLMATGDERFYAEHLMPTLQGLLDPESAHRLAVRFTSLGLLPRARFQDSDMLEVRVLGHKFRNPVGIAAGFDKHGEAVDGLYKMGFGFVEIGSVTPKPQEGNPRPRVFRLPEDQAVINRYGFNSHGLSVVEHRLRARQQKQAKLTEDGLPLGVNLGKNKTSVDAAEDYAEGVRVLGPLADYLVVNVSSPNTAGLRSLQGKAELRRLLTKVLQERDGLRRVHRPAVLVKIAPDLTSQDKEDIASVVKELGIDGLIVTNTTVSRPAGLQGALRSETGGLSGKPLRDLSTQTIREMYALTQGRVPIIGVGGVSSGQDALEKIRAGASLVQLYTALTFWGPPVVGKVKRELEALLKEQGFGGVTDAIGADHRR
Data set [33] has as its system Plasmodium falciparum. In words: Antimalarial activity against Plasmodium falciparum. It counts as functional, organism-based.
Data set [34] deals with T1, Dihydroorotate dehydrogenase (Plasmodium falciparum, UniProt Q54A96).
T1 sequence (Q54A96 whole entry): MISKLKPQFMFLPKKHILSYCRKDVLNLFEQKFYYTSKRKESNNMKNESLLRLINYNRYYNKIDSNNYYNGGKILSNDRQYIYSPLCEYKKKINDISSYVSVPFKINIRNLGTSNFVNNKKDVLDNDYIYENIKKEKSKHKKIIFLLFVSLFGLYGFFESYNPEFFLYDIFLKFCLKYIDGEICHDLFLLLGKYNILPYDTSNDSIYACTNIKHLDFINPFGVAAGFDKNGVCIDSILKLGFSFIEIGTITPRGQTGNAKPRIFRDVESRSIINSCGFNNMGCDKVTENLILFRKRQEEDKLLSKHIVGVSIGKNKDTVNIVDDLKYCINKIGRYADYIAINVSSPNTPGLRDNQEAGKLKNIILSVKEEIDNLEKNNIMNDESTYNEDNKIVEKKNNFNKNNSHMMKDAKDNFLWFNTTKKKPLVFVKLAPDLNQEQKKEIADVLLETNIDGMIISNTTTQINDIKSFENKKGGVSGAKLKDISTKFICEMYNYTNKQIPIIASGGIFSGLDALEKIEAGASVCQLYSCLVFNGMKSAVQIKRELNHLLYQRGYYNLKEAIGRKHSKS
In words: Inhibition of Plasmodium falciparum DHODH expressed in Escherichia coli using L-dihydroorotate as substrate.

In data set [35] the test system is Plasmodium falciparum. In words: Antimalarial activity against Plasmodium falciparum asexual blood stage form infected in human assessed as parasite clearance half-life at 10 mg, po after 8 days. It is filed as functional, organism-based.

One may read the Cmax as the peak of the concentration-time curve. In general, half-life refers to how long it takes for the measured level to halve. A high value points to slow loss. The term Tmax denotes the time at which the peak concentration occurs. Broadly, the EC50 is the concentration needed to bring the measured effect to its halfway point. As a reminder, the bioavailability is the share of a dose that reaches the circulation, judged against a reference dose that is usually intravenous. The low end stands for poor availability, the high end for good availability. Usually AUC(0-inf) stands for the area under the concentration-time curve extrapolated to infinity. A word on the Ki: it is a measure of affinity in units of concentration, obtained from inhibition or displacement. High values mean lower affinity, low ones higher affinity. For orientation: IC50 means the concentration that inhibits the measured activity by half. Read a high IC50 as weaker potency.

As to `CC1(C)c2nc(-c3ccc(F)cc3)c(Nc3ccc(F)cc3)n2CCN1C(=O)CN` [GANAPLACIDE], the Vd in [1] is 29.5 L/kg; in data set [5], 1610 to 2410 L. Further, the Time in data set [2] amounted to 24 h; in data set [8], 45 h; in data set [10] it was 24 h; in data set [11], 49 h. Also, the results for the Cmax in data set [3] and in data set [6] were 139 ng/mL and 7.6 to 2720 ng/mL, respectively. Besides, the Activity in data set [4] worked out at 58.3%; in data set [14], 87.5%. Besides, the half-life is 6.6 h in data set [7]; 5.7 h in data set [9]; 47 to 70 h in data set [15]; 44 h in data set [18]; 44 h in [19]. For the same compound, the time of peak concentration (Tmax) in data set [12] is 2 h; in data set [17], 1 to 6 h. Also, the EC50 in data set [13] turned out to be 5.5 nM; in data set [20] it was 12.6 nM. Also, the clearance in data set [16] is 267 to 583 mL/min; in data set [21] it was 90 mL/min/kg. The compound further registered a bioavailability in data set [22] of 48%.

In data set [23], `CC(F)(F)c1nc2nc(CO)cc(Nc3ccc(S(F)(F)(F)(F)F)cc3)n2n1` registered an EC50 of 1800 nM. For the same compound, the Tmax in data set [24] lay within 95 to 143 h. In addition, the half-life in data set [25] was 98 to 164 h. This compound also gave a total exposure AUC(0-inf) in data set [26] of 167 to 1170 µg·h/mL.

As to `Clc1ccc2c(N3CCN(CCCN4CCN(c5ccnc6cc(Cl)ccc56)CC4)CC3)ccnc2c1` [PIPERAQUINE], in data set [27], the Activity came out at 79.2%. The Ki in data set [28] worked out at 90 nM.

On to `C[C@H]1Cc2c([nH]c3cc(Cl)c(F)cc23)-c2c3cc(Cl)c(O)cc3nc(=O)n21`, for which, in data set [29], the dose excreted was determined as 36%. The Drug uptake in data set [30] is on record as 12%. In data set [31], this compound had a half-life of 25 h.

Take `C[C@H]1Cc2c([nH]c3cc(Cl)c(F)cc23)-c2c3cc(Cl)ccc3nc(=O)n21`: in data set [30], the Drug uptake turned out to be 8%.

With `Cc1cc(Nc2ccc(S(F)(F)(F)(F)F)c(F)c2)n2nc(C(C)(F)F)nc2n1`, the IC50 in data set [32] stood at 3700 nM; in [34], 10 nM. For the same compound, the EC50 in [33] is 2 nM.

As for `O[C@@H](c1cc(C(F)(F)F)nc2c(C(F)(F)F)cccc12)[C@H]1CCCCN1`, in data set [35], the T1/2 was determined as 6.2 h.

The values above are taken from ChEMBL document CHEMBL4376815, “The Development Process for Discovery and Clinical Advancement of Modern Antimalarials” (J Med Chem, 2019).
